The source of these data is PMC2099433, “The binding site for neohesperidin dihydrochalcone at the human sweet taste receptor” (BMC Structural Biology, 2007).

Molecules are shown by their SMILES. Where a chain is given by its changes, count along the chain named. Where a SMILES comes first, the peptide text is derived from it.

Assay [1] deals with T1, hTAS1R2 + hTAS1R3 Q637E^3.29 (Homo sapiens, UniProt Q7RTX0+Q8TE23, Q637E).
T1 construct: expressed in transfected cells; host or cells: HEK293T cells stably expressing G16Gust44
T1 sequence (Q8TE23 20-839): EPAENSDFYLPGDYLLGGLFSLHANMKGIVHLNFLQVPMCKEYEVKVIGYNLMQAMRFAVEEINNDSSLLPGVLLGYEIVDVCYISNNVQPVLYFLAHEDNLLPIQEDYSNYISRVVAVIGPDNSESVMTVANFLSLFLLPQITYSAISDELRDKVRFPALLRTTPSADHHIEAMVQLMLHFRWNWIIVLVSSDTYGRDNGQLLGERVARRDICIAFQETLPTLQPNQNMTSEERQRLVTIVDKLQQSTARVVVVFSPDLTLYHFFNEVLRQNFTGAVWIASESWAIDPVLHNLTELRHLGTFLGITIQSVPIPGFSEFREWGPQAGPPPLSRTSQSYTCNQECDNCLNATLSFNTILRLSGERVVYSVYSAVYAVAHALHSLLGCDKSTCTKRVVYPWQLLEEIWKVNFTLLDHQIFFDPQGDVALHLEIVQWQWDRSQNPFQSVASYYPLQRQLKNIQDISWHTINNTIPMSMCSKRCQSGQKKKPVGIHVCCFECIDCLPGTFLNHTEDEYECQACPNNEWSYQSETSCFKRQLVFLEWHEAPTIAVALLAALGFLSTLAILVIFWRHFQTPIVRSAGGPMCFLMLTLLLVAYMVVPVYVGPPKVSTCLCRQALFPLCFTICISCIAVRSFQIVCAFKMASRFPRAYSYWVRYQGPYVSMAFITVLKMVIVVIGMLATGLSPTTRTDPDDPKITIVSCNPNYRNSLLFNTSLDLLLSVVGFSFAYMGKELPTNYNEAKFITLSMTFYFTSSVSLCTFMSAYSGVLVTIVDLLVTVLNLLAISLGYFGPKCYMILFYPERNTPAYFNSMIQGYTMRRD
T1 sequence (Q7RTX0 21-852 Q637E): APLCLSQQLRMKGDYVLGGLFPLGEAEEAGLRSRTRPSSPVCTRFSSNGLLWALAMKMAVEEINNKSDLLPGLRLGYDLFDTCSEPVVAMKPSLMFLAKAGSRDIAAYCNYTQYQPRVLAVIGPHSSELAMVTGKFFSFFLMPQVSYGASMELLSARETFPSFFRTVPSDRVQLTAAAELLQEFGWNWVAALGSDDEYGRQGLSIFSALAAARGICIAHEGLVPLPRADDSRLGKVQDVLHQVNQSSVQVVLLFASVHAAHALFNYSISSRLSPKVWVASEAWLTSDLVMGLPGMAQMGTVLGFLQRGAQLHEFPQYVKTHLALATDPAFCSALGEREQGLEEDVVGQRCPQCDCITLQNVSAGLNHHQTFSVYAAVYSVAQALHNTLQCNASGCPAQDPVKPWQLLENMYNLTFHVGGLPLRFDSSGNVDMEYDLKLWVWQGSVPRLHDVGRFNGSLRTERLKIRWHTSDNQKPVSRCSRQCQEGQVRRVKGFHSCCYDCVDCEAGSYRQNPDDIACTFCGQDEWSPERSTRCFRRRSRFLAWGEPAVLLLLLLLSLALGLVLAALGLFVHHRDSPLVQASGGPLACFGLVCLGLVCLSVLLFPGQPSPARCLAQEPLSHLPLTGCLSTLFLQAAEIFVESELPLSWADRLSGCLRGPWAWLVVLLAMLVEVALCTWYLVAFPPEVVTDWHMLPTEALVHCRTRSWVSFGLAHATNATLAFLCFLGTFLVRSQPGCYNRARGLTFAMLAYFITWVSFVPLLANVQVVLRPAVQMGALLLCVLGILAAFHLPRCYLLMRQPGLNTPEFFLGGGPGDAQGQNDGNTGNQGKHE
The experiment in a line: Calcium response (FLIPR), hTAS1R3 mutant coexpressed with hTAS1R2. To be noted: variant Q637E^3.29; for Emax: read-out: maximal signal (% of wt). In kind it is cell-based. The procedure, abridged: (§1)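 Each mutant receptor pair was expressed transiently in G16Gust44-expressing HEK293T cells; stimuli dissolved in C1 solution triggered calcium responses, recorded by fluorometric imaging and scaled to baseline fluorescence (ΔF/F) after mock correction, from at least three experiments run in duplicate.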

The target of assay [2] is T2, hTAS1R2 + hTAS1R3 V779A^6.52 (Homo sapiens, UniProt Q7RTX0+Q8TE23, V779A).
T2 construct: expressed in transfected cells; host or cells: HEK293T cells stably expressing G16Gust44
T2 sequence (Q8TE23 20-839): T1 sequence (Q8TE23 20-839)
T2 sequence (Q7RTX0 21-852 V779A): T1 sequence (Q7RTX0 21-852 Q637E) with E617Q, V759A
The description is as above. In kind it is cell-based. To be noted: variant V779A^6.52; for Emax: read-out: maximal signal (% of wt). The procedure, abridged:
as §1

Regarding `COc1ccc(CCC(=O)c2c(O)cc(O[C@@H]3O[C@H](CO)[C@@H](O)[C@H](O)[C@H]3O[C@@H]3O[C@@H](C)[C@H](O)[C@@H](O)[C@H]3O)cc2O)cc1O` [NHDC, neohesperidin dihydrochalcone], in assay [1], the EC50 turned out to be 1500 ± 400 µM and the Emax came out at 51 ± 13%. In assay [2], the EC50 was found to be 200 ± 100 µM and the Emax is 88 ± 14%.

In the case of `COC(=O)[C@H](Cc1ccccc1)NC(=O)[C@@H](N)CC(=O)O` [aspartame] (HELM PEPTIDE1{D.F.[CO[*:1]]}$$$$V2.0), in assay [1], the EC50 stood at 1700 ± 200 µM and the Emax came to 51 ± 10%. Further, in assay [2], the EC50 amounted to 1200 ± 300 µM and the Emax turned out to be 52 ± 10%.
